{"source": "patent US20230040597A1", "about": "“USE OF NICOLSAMIDE FORMULATIONS FOR ANTIVIRAL THERAPY” (priority 2020, published 2023)", "key": {"[1]": {"system": "SARS-CoV-2", "experiment": "microbe, parasite or virus in culture", "type": "cell-based", "details": "Severe acute respiratory syndrome coronavirus 2, Vero C1008; Vero E6 cells; reporter SARS-CoV-2 MOI of 0.1; luciferase at 24 h post-infection; 0.5% DMSO; read-out: antiviral EC50"}, "[2]": {"experiment": "Drug-excipient compatibility study (related substances of binary mixtures)", "type": "physicochemical", "description": "Proposed drug to excipient ratio was selected based on the function of the excipient and maximum concentration to be used. Drug and excipient binary mixtures were prepared by uniform mixing. The blends were packed in clear glass vials and the compatibility was evaluated in closed conditions. In the closed-vial study, the dry mix samples were filled in vials with screw stopper fitting covered with parafilm and stored at 40° C./75% RH, 25° C./60% RH and 2° C.-8° C. storage condition up to 4 weeks. Samples at 40° C./75% RH and 25° C./60% RH were checked for physical description and analyzed for related substances, initially, at 2 weeks and at 4 weeks. Ratio of drug substance to excipients in blend for the compatibility study, are as follows: a) niclosamide:gelling agents/mucoadhesive agents was 1:15; b) niclosamide:solvents/co-solvents was 1:5; c) niclosamide:pH adjusting agents/neutralizing agents was 1:1; and d) niclosamide: preservatives/anti-oxidants was 1:0.5. Summary of physical description and related substances analysis of binary mixtures of API & excipients at initial and 40° C./75% RH-4 weeks condition are presented below in Table 8.\nThe impurities detected were as follows: Impurity-1 (5-chloro salicylic acid); Impurity-2 (2-chloro-4-nitro aniline); Impurity-3 (N-(2-chloro-4-nitrophenyl)-2-hydroxybenzamide); Impurity-4 (3,5-dichloro-N-(2-chloro-4-nitrophenyl)-2-hydroxybenzamide); and Impurity-5 (3-chloro-N-(2-chloro-4-nitrophenyl)-2-hydroxybenzamide)."}, "[3]": {"experiment": "physchem", "details": "25 °C, water"}, "[4]": {"experiment": "Saturation solubility in buffers (shake flask method)", "details": "0.1 N HCl, 0.01 N HCl, pH 3.0 and 4.0 acid phthalate buffer, pH 4.5 and 5.1 acetate buffer"}, "[5]": {"type": "physicochemical", "description": "Saturation solubility of niclosamide was studied in the solvents, to know the highest concentration of niclosamide that can be solubilized, as depicted in table 6.\nHeating and stirring improved solubilization of niclosamide in polyethylene glycol. […] In further formulation studies, drug substance concentration >7% w/w was desired, so 65° C. of temperature was used for solubilization of API."}, "[6]": {"system": "human sperm", "experiment": "Dose-dependent effect of niclosamide on sperm motility in fresh human semen", "type": "cell-based", "description": "FIG. 1 is a graph depicting the dose dependent effect of niclosamide dissolved in DMSO, on sperm motility. Fresh human semen samples were mixed with the different concentrations of niclosamide in vitro, followed by analysis of sperm motility within 2 minutes. The x-axis depicts the different concentrations of niclosamide mixed with the semen sample. The x-axis, from Left to Right: the gray bar depicts an untreated semen sample, the blue bar depicts a vehicle control, and the eight pink bars depict the increasing concentrations of niclosamide tested. […] The y-axis depicts the percentage (%) inhibition in sperm motility of each semen sample treated with a concentration of niclosamide o normalized to the sperm motility of a control sample. Change in sperm motility relative to control treated sample is shown as mean +/−standard error of the mean (S.E.M.) for the aggregate of individual experiments.\nSperm motility is a functional measurement of the sperm themselves. Sperm may be sampled directly from semen or from washed sperm samples, and assessed for motility either manually or by CASA (Computer Assisted Sperm Analysis) (Chapter 59—Male Reproductive System. Systems Toxicologic Pathology. Dianne M. Creasy, Robert E. Chapin, in Haschek and Rousseaux's Handbook of Toxicologic Pathology (Third Edition), 2013; Amann R P et al. Computer-assisted sperm analysis (CASA): capabilities and potential developments. Theriogenology. 2014 Jan. 1; 81(1):5-17).\nSperm motility (expressed as %) may be evaluated in duplicate within 1 h of semen collection, by counting moving and nonmoving sperm in several microscopic fields. […] In preferred embodiments, only complete spermatozoa (head with tail) are included in such counts. Slow-moving sperm (class B+C) can be easily and accurately counted compared with rapidly moving (class A) sperm. A multi-button tally, preferably a digital one, is used to differentially count such motility (for additional detail, see Chapter 23: Standardized semen analysis and quality control management for multicenter male reproductive toxicology clinical trials, Sikka S. C. et al., in Bioenvironmental Issues Affecting Men's Reproductive and Sexual Health, 2018, the contents of which are incorporated herein by reference in their entirety).\nAfter 2 minutes of incubation with the formulation, the semen samples were collected and analyzed for sperm motility. […] Data were collected within 2 minutes after mixing the formulation in gel form, with fresh semen, so the effects are instantaneous. As for timing, the gel may be applied 15-20 minutes prior to intercourse to allow gelling to fully occur. Furthermore, the gel may not be efficacious after residing in the vagina for longer than 1 hour."}, "[7]": {"details": "40° C./75% RH, 4 Weeks, closed vial"}}, "note": "Like-named read-outs stand apart in the source and are kept apart here."}
{"smiles": "O=C(Nc1ccc([N+](=O)[O-])cc1Cl)c1cc(Cl)ccc1O", "note": "[niclosamide]", "values": [{"measurement": "EC50", "setting": "[1]", "value": 150, "unit": "nM"}, {"measurement": "Solubility", "setting": "pH 1.2", "value": "Nil"}, {"measurement": "Solubility", "setting": "pH 2", "value": "Nil"}, {"measurement": "Solubility", "setting": "pH 3", "value": "Nil"}, {"measurement": "Solubility", "setting": "pH 4", "value": "Nil"}, {"measurement": "Solubility", "setting": "pH 4.5", "value": "Nil"}, {"measurement": "Solubility", "setting": "pH 5.1", "value": "Nil"}, {"measurement": "Imp-3", "setting": "[2]; [7]", "value": 0.026, "unit": "%"}, {"measurement": "Imp-4", "setting": "[2]; [7]", "value": 0.012, "unit": "%"}, {"measurement": "Imp-5", "setting": "[2]; [7]", "value": 0.014, "unit": "%"}, {"measurement": "Single Max Unk Imp", "setting": "[2]; [7]", "value": 0.007, "unit": "%"}, {"measurement": "Total Impurities", "setting": "[2]; [7]", "value": 0.06, "unit": "%"}, {"measurement": "Imp-3", "setting": "[2]; Initial", "value": 0.029, "unit": "%"}, {"measurement": "Imp-4", "setting": "[2]; Initial", "value": 0.009, "unit": "%"}, {"measurement": "Single Max Unk Imp", "setting": "[2]; Initial", "value": 0.010, "unit": "%"}, {"measurement": "Total Impurities", "setting": "[2]; Initial", "value": 0.05, "unit": "%"}, {"measurement": "Solubility", "setting": "[3]", "value": 5, "unit": "µg/mL"}, {"measurement": "solubility in studied buffers", "setting": "[4]", "value": "insoluble"}, {"measurement": "maximum solubility", "setting": "[5]", "value": 5, "unit": "% w/w"}, {"measurement": "Minimum dose to see effect (inhibits sperm motility)", "setting": "[6]", "value": 4, "unit": "mM"}, {"measurement": "Minimum dose to see effect (inhibits sperm motility), Amount (w/w)", "setting": "[6]", "value": 0.13, "unit": "%"}, {"measurement": "inhibition at 10000 µM", "setting": "[6]; Sperm, 2 min, 10 mM niclosamide, fresh human semen, within 2 minutes, relative to control, read-out: percentage (%) inhibition in sperm motility", "value": 100, "unit": "%"}, {"measurement": "Concentration giving complete inhibition of sperm motility", "setting": "[6]; semen sample vs control sample, 2 minutes incubation", "value": "≥ 10", "unit": "mM"}]}
